Measured values from patent US20240307485A1, “WS635 USES THEREOF IN MEDICINE” (WATERSTONE PHARMACEUTICALS (WUHAN) CO., LTD., priority 2021, published 2024).
“Also recorded” adds a separate entry of the source.

Columns and labels:
[1] = system: wound healing model of SD rats; assay: Skin wound healing model in SD rats (full-thickness circular skin wound, 2 cm diameter); format: in vivo; conditions: for wound area compared with the model group: once a day, WS635 oral 52.8 mg/kg, rb-bFGF external 262.5 IU/cm2, P<0.05, P<0.01; for wound healing rate over the administration cycle: once a day for 7 days, time course
Method: Eighteen 6-week-old male SD rats were randomly divided into 3 groups: model group, test article group and positive control group, with 6 rats in each group. Skin wound surgery was performed after anesthesia, and oral administration was started 2 h after skin wound formation. All rats were raised in a single cage. […]. The surgical details were as follows: All animals were anesthetized with 10% chloral hydrate solution (3 mL/kg) by intraperitoneal injection, their backs were depatured with pet shaving knives, and a circular mark with a diameter of 2 cm was made. After the skin was disinfected with alcohol, the full layer of skin was removed with surgical scissors along the marking line, and the wound surface was pressed to stop bleeding. The model group was orally given 10% DMSO corn oil, the test group was orally given WS635 (corn oil dissolved in 10% DMSO) at 52.8 mg/kg, and the positive control group was given 262.5 IU/cm2 (62.5 μL/cm^2) recombinant bovine basic fibroblast growth factor (rb-bFGF) external solution, once a day for 7 days. Digital photos were taken of the wound of each rat under the same conditions. The wound was recorded with plastic transparent paper, and the wound area was scanned by image J software after the wound was recorded with plastic transparent paper. Wound healing rate was calculated according to wound area (%)=(area after administration−area before administration)/area before administration 100%.

angiogenesis = assay: Angiogenesis in rats; format: in vivo
[2] = Toxicity test of repeated oral administration for 9 days in rats; conditions: rat, in vivo, read-out: NOAEL (No Observed Adverse Effect Level) dose

Compound	wound area compared with the model group ([1]; Day 3)	wound area compared with the model group ([1]; Day 7)	wound healing effect of WS635 compared with rb-bFGF ([1]; WS635 oral 52.8 mg/kg vs rb-bFGF 262.5 IU/cm2, P>0.05, 52.8 mg/kg)	wound healing rate over the administration cycle [1]	wound healing (overall conclusion) ([1]; oral administration, SD rats)	angiogenesis (angiogenesis)	NOAEL at 9 days [2]
C/C=C/C[C@@H](C)[C@@H](O)[C@H]1C(=O)N[C@@H](CC)C(=O)N(C)[C@H](SCCN(C)C)C(=O)N(C)[C@@H](CC(C)(C)O)C(=O)N[C@@H](C(C)C)C(=O)N(C)[C@@H](CC(C)C)C(=O)N[C@@H](C)C(=O)N[C@H](C)C(=O)N(C)[C@@H](CC(C)C)C(=O)N(C)[C@@H](CC(C)C)C(=O)N(C)[C@@H](C(C)C)C(=O)N1C [WS635, (3S,6S,9S,12R,15S,18S,21S,24S,27R,30S,33S)-27-((2-(dimethylamino)ethyl)thio)-30-ethyl-3 3-((1R,2R,E)-1-hydroxy-2-methylhex-4-en-1-yl)-24-(2-hydroxy-2-methylpropyl)-6,9,18-triisobutyl-3,21-diisopropyl-1,4,7,10,12,15,19,25,28-nonamethyl-1,4,7,10,13,16,19,22,25,28,31-undecaazacyclotritriacontan-2,5,8,11,14,17,20,23,26,29,32-undecaone]	decreased significantly	decreased significantly	equivalent to rb-bFGF; also recorded: no significant difference	enhances wound healing rate in a time-dependent manner; also recorded: increased with the extension of administration time	significantly promote wound healing	significantly promote angiogenesis	80 mg/kg/day
rb-bFGF: recombinant bovine basic fibroblast growth factor (rb-bFGF) external solution, positive control	decreased significantly	decreased significantly		increased with the extension of administration time			
